The values that follow are results of earlier work, collected in US8722849B2, “Polypeptides” (Novo Nordisk A/S, priority 2011, dated 2014).

For the data set the following is noted: cited from earlier work.

On to salmon calcitonin, for which the plasma half-life entry is recorded as “about 45 minutes”.
